The values below are quoted from earlier work in patent US20230159467A1, “NOVEL COMPOUNDS USEFUL IN THE TREATMENT AND/OR PREVENTION OF A DISEASE, DISORDER OR CONDITION ASSOCIATED WITH ANGIOTENSIN II” (Vicore Pharma AB, priority 2020, published 2023).

For data set [1], the system named is CYP3A. The note with it: at 10 μM; midazolam substrate; from Bioorg. Med. Chem. 2010, 18 (12), 4570-4590; cited from earlier work.
The target in data set [2] is CYP2D6 (Homo sapiens, UniProt P10635). The note with it: at 10 μM; from Bioorg. Med. Chem. 2010, 18 (12), 4570-4590; cited from earlier work.
Chain of CYP2D6 (P10635 whole entry): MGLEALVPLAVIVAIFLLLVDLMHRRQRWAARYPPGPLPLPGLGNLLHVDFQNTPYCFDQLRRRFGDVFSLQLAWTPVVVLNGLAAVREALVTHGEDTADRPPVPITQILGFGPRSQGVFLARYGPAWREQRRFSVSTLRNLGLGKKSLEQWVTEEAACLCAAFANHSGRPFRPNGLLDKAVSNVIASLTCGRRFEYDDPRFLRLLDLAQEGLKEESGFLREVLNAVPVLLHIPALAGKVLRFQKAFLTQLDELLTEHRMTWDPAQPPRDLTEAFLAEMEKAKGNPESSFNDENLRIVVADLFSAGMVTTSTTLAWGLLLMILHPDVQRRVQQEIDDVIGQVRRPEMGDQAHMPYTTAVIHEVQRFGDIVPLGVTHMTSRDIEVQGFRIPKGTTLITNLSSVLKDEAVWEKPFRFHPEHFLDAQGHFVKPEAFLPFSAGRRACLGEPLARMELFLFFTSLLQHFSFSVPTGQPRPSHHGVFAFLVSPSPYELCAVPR
Data set [3] has as its target CYP2C19 (Homo sapiens, UniProt P33261). Conditions: at 10 μM; from Bioorg. Med. Chem. 2010, 18 (12), 4570-4590; cited from earlier work.

Chain of CYP2C19 (P33261 whole entry): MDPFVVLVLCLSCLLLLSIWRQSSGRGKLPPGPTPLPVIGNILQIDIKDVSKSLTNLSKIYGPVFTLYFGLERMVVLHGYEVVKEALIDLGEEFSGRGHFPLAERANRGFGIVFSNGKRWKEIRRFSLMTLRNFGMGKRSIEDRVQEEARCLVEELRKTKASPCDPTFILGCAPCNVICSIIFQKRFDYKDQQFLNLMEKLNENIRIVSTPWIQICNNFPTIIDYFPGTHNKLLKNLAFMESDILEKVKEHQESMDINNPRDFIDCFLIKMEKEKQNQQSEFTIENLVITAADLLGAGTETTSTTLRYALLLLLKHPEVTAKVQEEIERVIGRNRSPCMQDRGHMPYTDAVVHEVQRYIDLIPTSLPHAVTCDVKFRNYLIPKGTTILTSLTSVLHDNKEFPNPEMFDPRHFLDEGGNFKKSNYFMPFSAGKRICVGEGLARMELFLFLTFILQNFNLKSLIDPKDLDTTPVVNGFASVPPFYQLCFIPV

As for `CCCCOC(=O)NS(=O)(=O)c1sc(CC(C)C)cc1-c1ccc(Cn2ccnc2)cc1` [Example C21, butyl ((3-(4-((1H-imidazol-1-yl)methyl)phenyl)-5-isobutylthiophen-2-yl)sulfonyl)carbamate], the “CYP 450 Inhibition CYP3A midazolam” value in data set [1] was 82%. Also, the “CYP 450 Inhibition CYP2D6” value in data set [2] is 41%. Further, the “CYP 450 Inhibition CYP2C19” value in data set [3] is given as 67%.
